Legend:
Assay type in all cases: in vivo
[1] = tested on: potato plants; assay: Spray treatment of four-week old potato plants with ascr #18: growth and tuber yield
Description: FIGS. 6A-6B show the effects of ascr #18 on potato plants. Four-week old potato plants were pretreated without (mock) or with ascr #18 (10 nM). Potato tubers were harvested from mock and pre-treated plants. FIG. 6A provides images of tubers from one representative plant that was mock treated and one representative plant that was treated with ascr #18. FIG. 6B provides a graph of the biomass of the above-ground (excluding root) part of the potato plants. FIGS. 7A-7E show the effect of ascr #18 on potato plant growth and yield. Four-week old potato plants were sprayed once with buffer only (mock) or 10 nM ascr #18 before harvesting two weeks later. […] Potato root system (7C) and tubers (7D) harvest from treated and mock plants are presented. Each pile of tubers was from one plant. FIG. 7E presents the tuber biomass of the mock and treated plants at harvest. The effects of ascr #18 on potato were also studied. Four week old potato plants were pretreated (sprat treatment) without (mock) or with ascr #18 (10 nM). Potato tubers were harvested from mock and pre-treated plants. Each pile of tubers in FIG. 6A were from one plant. […] The above-ground (excluding root) part of the potato plants was also measured.

[2] = tested on: Arabidopsis seeds; assay: Arabidopsis seed pretreatment with ascr #18: germination, growth and flowering
Description: Arabidopsis seeds were pretreated 24 hours without (mock) or with 1 μM ascr #18 before planting in soil. FIG. 5A provides a graph of the number of plants at different stages of germination counted 3 days after planting. Stages of germination; 0=no germination; 1=about to germinate; 2=germinated and two-leaf stage; 3=germinated and have expanded leaves (n=60). FIG. 5B provides graphs of the surface area of germinated plants measured by taking pictures and counting pixels using Fiji software and then normalizing by the total area for each plant (n=15 pots with each pot containing 4 plants). FIG. 5C provides a graph of the percent of plants flowering at day 25 after planting in soil. FIG. 5D provides a graph of the fresh weight of above-ground (excluding root) part of the plants measured at day 25 after planting in soil. *P=0.03; **P≤0.01; ***P≤0.001; ****P≤0.0001; two-tailed t-test. The effects of ascr #18 on Arabidopsis were also studied. Arabidopsis seeds were pretreated 24 hours without (mock) or with 1 μM ascr #18 for ascr #18 before planting in soil. The number of plants at different stages of germination were counted 3 days after planting. […] Additionally, the surface area of germinated plants was measured by taking pictures and counting pixels using Fiji software. The data was then normalized by the total area for each plant. […] The percentage of plants flowering at day 25 after planting in soil was also determined. […] The fresh weight of above-ground (excluding root) part of the plants was also measured 25 days after planting.

[3] = tested on: wheat seeds; assay: Wheat seed pretreatment with ascr #18: germination/emergence and growth in soil; details: wheat seeds pretreated 24 hours with 10, 100, 1000 nM vs mock; 10 days after planting (FIG. 9B)
Description: FIGS. 9A-9B show the effect of ascr #18 on wheat seed germination/emergence and growth. Wheat seeds were pretreated 24 hours without (mock) or with different concentrations (10, 100 and 1000 nM) of ascr #18 before planting in soil. Seed germination/emergence from soil was measured after 2, 3, 4, 5, 6, 7, 8, 9 and 10 days after planting (FIG. 9A). The height of the second node of the plants was measured […] after planting (FIG. 9B). Data are averages±s.d. (n≥12). *P≤0.05; two-tailed t-test. The effect of ascr #18 on wheat seed germination/emergence and growth was also studied. Wheat seeds were pretreated 24 hours without (mock) or with different concentrations (10, 100 and 1000 nM) of ascr #18 before planting in soil. Seed germination/emergence from soil was measured after 2, 3, 4, 5, 6, 7, 8, 9 and 10 days after planting (FIG. 9A). The height of the second node of the plants was also measured 10 days after planting.

[4] = tested on: tomato seeds; assay: Tomato seed pretreatment with ascr #18: germination/emergence and growth in soil
Description: Tomato seeds were pretreated 24 hours without (mock) or with different concentrations (1, 10, 100, 1000 and 10000 nM) of ascr #18 before planting on soil. The length of the plants was measured 12 days after planting. **P≤0.002; ****P≤0.00005; two-tailed t-test. FIGS. 4A-4F show the effect of ascr #18 on tomato seed germination/emergence and growth. Tomato seeds were pretreated 24 hours without (mock) or with different concentrations (10, 100, and 1000 nM) of ascr #18 before planting in soil. Seed germination/emergence from soil was measured after 4, 5, 6 and 7 days after planting (FIG. 4A). The length of plants was measured 12 and 14 days after planting (FIG. 4B). Pictures were taken 14 days after planting (FIG. 4C). **P≤0.002; ****P≤0.00005; two-tailed t-test. FIGS. 4D and 4E provide graphs of the fresh weight of above-ground (excluding root) part of the plants measured at day 21 after planting in soil for tomato seeds pretreated without (mock) or with different concentrations (0.1 and 10 μM) of ascr #18 for 24 hours (FIG. 4D) or 72 hours (FIG. 4E) before planting in soil. The length of the roots of the plants was also measured 21 days after planting (FIG. 4F). The effect of ascr #18 on was also determined on tomato plant growth. Tomato seeds were pretreated 24 hours without (mock) or with different concentrations (1, 10, 100, 1000 and 10000 nM) of ascr #18 before planting on soil. The length of the plants was measured 12 days after planting. […] Further studies on the effect of ascr #18 on tomato seed germination/emergence and growth. Tomato seeds were pretreated 24 hours without (mock) or with different concentrations (10, 100, and 1000 nM) of ascr #18 before planting in soil. Seed germination/emergence from soil was measured after 4, 5, 6 and 7 days after planting. […] The length of the plants was also measured 12 and 14 days after planting and pictures were taken 14 days after planting. […] In further experiments, tomato seeds were pretreated 24 or 72 hours without (mock) or with different concentrations (0.1 and 10 μM) of ascr #18 before planting in soil. More specifically, the tomato seeds were submerged in aqueous solutions of ascaroside for 24 hours or 72 hours directly before planting. Alternatively, seeds, (e.g., tomato seeds) can be coated with a solution of different concentrations of ascaroside containing polymeric binders commonly used for seed coating. Following treatment, the seeds can be dried and stored (e.g., for 2 weeks) before planting. The fresh weight of above-ground (excluding root) part of the plants was measured 21 days after planting. […] The length of the roots of the plants was also measured 21 days after planting.

[5] = tested on: corn seeds; assay: Corn seed pretreatment with ascr #18: germination/emergence and growth in soil
Description: FIGS. 8A-8B show the effect of ascr #18 on corn seed germination/emergence and growth. Corn seeds were pretreated 24 hours without (mock) or with different concentrations (10, 100 and 1000 nM) of ascr #18 before planting in soil. Seed germination/emergence from soil was measured after 4, 5, 6, 7, 8, 9, 10 and 11 days after planting (FIG. 8A). The height of the second node of the plants was measured 15 days after planting (FIG. 8B). Data are averages±s.d. (n≥12). *P≤0.05; two-tailed t-test. The effect of ascr #18 on corn seed germination/emergence and growth was also studied. Corn seeds were pretreated 24 hours without (mock) or with different concentrations (10, 100 and 1000 nM) of ascr #18 before planting in soil. Seed germination/emergence from soil was measured after 4, 5, 6, 7, 8, 9, 10 and 11 days after planting. […] The height of the second node of the plants was also measured 15 days after planting.

[6] = tested on: rice seeds; assay: Rice seed pretreatment with ascr #18: germination/emergence and growth in soil
Description: FIGS. 1A-1D show the effect of ascr #18 on rice seed germination/emergence and growth. Rice seeds were pretreated 24 hours without (mock) or with different concentrations (10, 100 and 1000 nM) of ascr #18 before planting in soil. Seed germination/emergence from soil was measured after 7, 8, 9, 10 and 11 days after planting (FIG. 1A). The length of the plants was measured 15 days after planting (FIG. 1B) and 18 days after planting (FIG. 1C). Pictures were taken 15 days after planting (FIG. 1D). Data are averages±s.d. (n≥12). ***P≤0.0005; ****P≤0.00005; two-tailed t-test.
FIGS. 2A-2C show the effect of ascr #18 on rice seed germination/emergence and growth. Rice seeds were pretreated 24 hours without (mock) or with different concentrations (10, 100 and 1000 nM) of ascr #18 before planting in soil. Seed germination/emergence from soil was measured after 6, 7, 8, 9 and 10 days after planting (FIG. 2A). The length of the plants was measured 10, 12, 14, 15 and 18 days after planting (FIG. 2B). The fresh biomass of the plants was measured 18 days after planting (FIG. 2C). Data are averages±s.d. (n≥14). *P≤0.05; **P≤0.005; ***P≤0.0005; ****P≤0.00005; two-tailed t-test.
The effect of ascr #18 on rice seed germination/emergence and growth was tested. Briefly, rice seeds were pretreated 24 hours without (mock) or with different concentrations (10, 100 and 1000 nM) of ascr #18 before planting in soil. Seed germination/emergence from soil was measured after 7, 8, 9, 10 and 11 days after planting. […] The length of plants was also measured 15 days and 18 days after planting and pictures were taken at 15 days after planting.
Further studies of the effect of ascr #18 on rice seed germination/emergence and growth were performed. Rice seeds were pretreated 24 hours without (mock) or with different concentrations (10, 100 and 1000 nM) of ascr #18 before planting in soil. Seed germination/emergence from soil was measured after 6, 7, 8, 9 and 10 days after planting. […] The length of plants was also measured at 10, 12, 14, 15 and 18 days after planting. […] The fresh biomass of plants was also measured 18 days after planting.

## CC1O[C@@H](O[C@@H](C)CCCCCCCCC(=O)O)C(O)C[C@H]1O (stereo in doubt) [ascr #18, (10R)-(3′R,5′R-dihydroxy-6′S-methyl-(2H)-tetrahydropyran-2-yloxy)-undecanoic Acid]
[1]; four-week old potato plants sprayed once with 10 nM vs mock, harvest two weeks later (FIG. 6B, FIGS. 7A-7E)
  Biomass of the potato plants (above-ground part, tubers): greater biomass
[1]; four-week old potato plants sprayed with 10 nM vs mock (FIG. 6A)
  Potato tubers harvested: significantly more potato tubers
[2]; Arabidopsis seeds pretreated 24 hours with 1 μM vs mock, 3 days after planting (FIG. 5A)
  Number of plants at different stages of germination: faster germination/emergence rate
[2]; Arabidopsis, 1 μM vs mock, 25 days after planting (FIG. 5D)
  Fresh weight of above-ground (excluding root) part of the plants: greater weight
[2]; Arabidopsis, 1 μM vs mock, day 25 after planting in soil (FIG. 5C)
  Percentage of plants flowering: greater plant flowering
[2]; Arabidopsis, 1 μM vs mock, pixel counting with Fiji software, normalized (FIG. 5B)
  Surface area of germinated plants: greater plant surface area
[3]
  Height of the second node of the plants: taller
[4]; tomato seeds pretreated 24 or 72 hours with 0.1 and 10 μM vs mock, 21 days after planting (FIGS. 4D-4E), particularly with longer pretreatment
  Fresh weight of above-ground (excluding root) part of the plants: greater weight
[4]; tomato seeds pretreated 24 hours with 10, 100, 1000 nM vs mock, 4-7 days after planting (FIG. 4A)
  Seed germination/emergence from soil: faster germination/emergence rate
[4]; tomato, 0.1 and 10 μM vs mock, 21 days after planting (FIG. 4F)
  Length of the roots of the plants: longer roots
[4]; tomato, 10, 100, 1000 nM for 24 hours, 12 and 14 days after planting (FIGS. 4B-4C)
  Length of the plants: taller
[4]; tomato, seed treatment 100 nM or 1000 nM vs untreated or 10 nM, 12 days after planting (FIG. 3)
  Length of the plants: taller
[5]; corn seeds pretreated 24 hours with 10, 100, 1000 nM vs mock, 4-11 days after planting (FIG. 8A)
  Seed germination/emergence from soil: faster germination/emergence rate
[5]; corn, 10, 100, 1000 nM vs mock, 15 days after planting (FIG. 8B)
  Height of the second node of the plants: taller
[6]; rice seeds pretreated 24 hours with 10, 100, 1000 nM vs mock, 7-11 days after planting (FIG. 1A)
  Seed germination/emergence from soil: faster germination/emergence rate
[6]; rice, further study, 10, 100, 1000 nM for 24 hours vs mock, 6-10 days after planting (FIG. 2A)
  Seed germination/emergence from soil: faster germination/emergence rate
[6]; rice, further study, 10, 100, 1000 nM, 10, 12, 14, 15 and 18 days after planting (FIG. 2B)
  Length of plants: faster growth
[6]; rice, further study, 10, 100, 1000 nM, 18 days after planting (FIG. 2C)
  Fresh biomass of plants: greater biomass
[6]; rice, seed treatment 100 nM or 1000 nM vs untreated or 10 nM, 15 and 18 days after planting (FIGS. 1B-1D)
  Length of plants: taller

Reference: US20220264876A1, “COMPOSITIONS AND METHODS FOR ENHANCING PLANT GROWTH” (BOYCE THOMPSON INSTITUTE FOR PLANT RESEARCH, INC., priority 2019, published 2022)
